Assay results from the supplement of paper PMC3842684.

What was measured:
[1] = test system: P. falciparum NF54-pfs16-GFP early (I-III) stage gametocytes; settings: stage: early (I-III) gametocyte; incubation 72 h
Description: (§1)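 MMV Malaria Box compounds active in the primary screen were retested in dose-response against P. falciparum NF54-pfs16-GFP early (I-III) or late (IV-V) gametocytes, 72 h, 37 C, viable gametocytes counted by confocal imaging; IC50 from an unconstrained 4-parameter fit. Compounds with no plateau have no IC50 and are left out.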

[2] = test system: P. falciparum NF54-pfs16-GFP late (IV-V) stage gametocytes; settings: stage: late (IV-V) gametocyte; incubation 72 h
Description: as §1

SMILES | IC50, viable gametocyte number [1] [nM] | IC50, viable gametocyte number [2] [nM]
CCN(CC)CCn1c(=N)n(CC(O)c2ccc(Cl)c(Cl)c2)c2ccccc21 (stereo unspecified) | 1440 | 1090
COc1ccc(-c2nc(N3CCN(C(=O)C4CCCCC4)CC3)c3c4c(sc3n2)CCCC4)cc1 | – | 1290
Cn1c(=O)n(C)c2cc(CNCCNc3ccnc4cc(Cl)ccc34)ccc21 | 588 | –
c1ccc(Cn2c(N=Nc3c(Nc4ccccc4)ccc4ccccc34)nc3ccccc32)cc1 | – | 184
Oc1ccccc1CN1CCN(C(c2ccccc2)c2ccccc2)CC1 | – | 1320
CCOc1ccccc1CN1CCc2nc3cc(C(C)(C)C)nn3c(O)c2C1 | – | 1590
COc1cccc(O)c1CN1CCC2(CCCN(Cc3ccc(F)cc3)C2)C1 (stereo unspecified) | – | 899
O=C1c2ccccc2C2=Nc3ccccc3SC(c3cccc(F)c3)C12 (stereo unspecified) | – | 733
COc1cc2c(cc1OC)C1=NNC(=O)C1=NC(C)(C)C2 | – | 1040
Oc1ccccc1CN1CCC2(CCCN(Cc3ccccc3F)C2)C1 (stereo unspecified) | 1360 | 673
Cc1ccc2c(C)nc(Nc3nc(C)cc(-c4ccccc4)n3)nc2c1 | – | 673
CCCc1cc(O)c2c3c(c(=O)oc2c1)CN(C)CC3 | – | 591
CCCCCCc1cc(O)c2c3c(c(=O)oc2c1)CCC(C)C3 (stereo unspecified) | – | 759
CC1CC2=C(CC1CNCCCN(C)C)C(C)(C)CCC2 (stereo unspecified) | – | 541
CC(C)(C)c1ccc2c(c1)CN(Cc1ccc(Cl)cc1)CO2 | – | 920
Cc1sc2ncnc(Sc3nc4ccccc4[nH]3)c2c1C | 1140 | 324
OC(CNC1CCCCC1)Cn1c2ccc(I)cc2c2cc(I)ccc21 (stereo unspecified) | 252 | 63
CNCCCNc1ccnc2cc(Cl)ccc12 | 274 | 310
Cc1cc(Nc2ccc(OCc3ccccc3)cc2)nc2cc(O)ccc12 | – | 784
COc1ccc(C2NCCc3c2[nH]c2ccccc32)cc1CN1CCN(c2ccc(F)cc2)CC1 (stereo unspecified) | – | 1170
CN(C)CCCNc1c2ccccc2nc2ccccc12 | 1440 | 703
COc1ccc(C(=O)C(CCC(CNC(C)(C)C)C(=O)c2ccc(OC)cc2)CNC(C)(C)C)cc1 (stereo unspecified) | – | 1090
COc1ccc(-c2nc3cc(Cc4ccc5[nH]c(-c6ccc(OC)cc6)nc5c4)ccc3[nH]2)cc1 | 949 | 1110
COc1ccc(C=C2SC(Nc3ccc(F)cc3)=NC2=O)c(OC)c1 | – | 892

SMILES | IC50, viable gametocyte number [1] [nM] | IC50, viable gametocyte number [2] [nM]
Clc1cc(Br)ccc1-c1ccc(CNCC2CCNCC2)o1 | 824 | 692
CSC1=NC(=Nc2c(C)cccc2C)C2(CCC(C(C)(C)C)CC2)N1c1ccc(Cl)cc1 (stereo unspecified) | – | 592
Cc1ccc(N2C3c4ccccc4N(S(=O)(=O)c4ccc(C)cc4)C2c2ccccc2N3S(=O)(=O)c2ccc(C)cc2)cc1 | 1180 | 208
CSc1ccccc1C(=O)Nc1nc(-c2ccccn2)cs1 | – | 781
CCCCCCc1cc2cc(-c3nc4ccccc4[nH]3)c(=Nc3ccccc3C)oc2cc1O | 819 | 465
Cc1ccc(-c2cc3c(nn2)-c2ccccc2C3=O)cc1 | – | 603
CC1=C(CC(=O)c2cccc([N+](=O)[O-])c2)C(=O)c2ccccc2C1=O | 1160 | 745
Oc1ccc(-c2nc(-c3ccc4oc5ccc(-c6[nH]c(-c7ccc(O)cc7)nc6-c6ccccc6)cc5c4c3)c(-c3ccccc3)[nH]2)cc1 | 699 | –
CCc1ccc(Nc2cc(C)c3ccc(O)cc3n2)cc1 | – | 1270
COc1ccc(C2=C(c3ccc(OC)cc3)C3(c4ccccc4)C(=O)C2(c2ccccc2)C2C(=O)N(c4ccc(C)cc4)C(=O)C23)cc1 (stereo unspecified) | – | 333
CCN(CC)CCNc1ccnc2cc3ccccc3cc12 | 1710 | –
COC(=O)c1ccc(C2C3=C(O)CC(c4ccc(F)cc4)CC3=Nc3ccccc3N2C(=O)c2ccccc2)cc1 (stereo unspecified) | – | 1130
Brc1ccc(Nc2nc3ccccc3nc2Nc2ccc(Br)cc2)cc1 | – | 948
Cc1ccc(Nc2nc(-c3ccccn3)cs2)cc1 | 461 | 231
CCOC(=O)C1=C(C)N=c2sc(=Cc3ccccc3O)c(=O)n2C1c1ccc(OC)c2ccccc12 (stereo unspecified) | – | 1080
OCCNc1nc(Nc2ccc(Cl)c(Cl)c2)nc2ccccc12 | – | 1350
CCCOCc1cc(CN2CCN(c3cccc(Cl)c3)CC2)c(O)c2ncccc12 | – | 584
CN1CCN(c2ccc(Nc3c4ccccc4nc4ccccc34)cc2)CC1 | 1110 | 1360
CCOC(=O)c1c(NC(=O)c2ccccc2)sc2c(O)c(CN(CC)CC)ccc12 | 810 | 371
CC(C)CCNCC(O)Cn1c2ccccc2c2ccccc21 (stereo unspecified) | – | 1170
COc1ccc(C(C)=O)cc1N1C(=O)C2C(C1=O)C1(c3ccccc3)C(=O)C2(c2ccccc2)C(c2ccc(C)cc2)=C1c1ccc(C)cc1 (stereo unspecified) | – | 826
FC(F)(F)c1cccc(Nc2nc3ccccc3nc2Nc2cccc(C(F)(F)F)c2)c1 | 1310 | 416
Nc1ccc(-c2nc3cc(Cc4ccc5[nH]c(-c6ccc(N)cc6)nc5c4)ccc3[nH]2)cc1 | – | 1100
COc1ccc2c(=O)cc(C(Cl)(Cl)Cl)oc2c1 | 1210 | –

SMILES | IC50, viable gametocyte number [1] [nM] | IC50, viable gametocyte number [2] [nM]
CC(C)(C)c1ccc(O)c(CNC2CCCCC2)c1 | 712 | 382
CCCCCCc1cc2cc(-c3csc(C=Cc4ccccc4)n3)c(=O)oc2cc1O | 830 | 594
OC1=C2C(=Nc3ccccc3SC2c2ccc(Br)cc2)c2ccccc21 (stereo unspecified) | – | 875
CC1CCCCN1CCCNC(=O)c1ccc2c(c1)sc1nc(-c3ccc(F)cc3)cn12 (stereo unspecified) | 1790 | –
COc1ccc(C(=O)NC(c2ccc(Cl)cc2Cl)c2cc(Cl)c3cccnc3c2O)cc1 (stereo unspecified) | – | 1080
CN(C)c1ccc(C=Cc2nc(=O)c3ccccc3o2)cc1 | – | 936
CCCCCCn1c(=N)n(CC(O)COc2cccc(C)c2)c2ccccc21 (stereo unspecified) | – | 1610
Oc1ccccc1CNCC12CC3CC(CC(C3)C1)C2 | 891 | 415
O=c1cc(NC2CCN(CCCc3ccccc3)CC2)c2cc(Cl)ccc2o1 | 1310 | –
CCOC(=O)c1cn(CC)c2cc(N(C)CCc3ccc(OC)c(OC)c3)c(F)cc2c1=O | – | 574
CCOC(=O)C1=C(C)N=c2sc(=Cc3cc(Cl)ccc3O)c(=O)n2C1c1ccc(OC)cc1 (stereo unspecified) | 359 | 228
CN(C)c1ccc(C(O)(c2ccc(N(C)C)cc2)c2ccc(N(C)C)cc2)cc1 | 769 | 315
COc1ccc(C2c3ccc4ccccc4c3Oc3ncn(CCCN(C)C)c(=N)c32)cc1 (stereo unspecified) | – | 1060
CCN(CC)CCNc1ccnc2cc(Cl)ccc12 | 1020 | –
CCOC(=O)c1cn(CC)c2cc(N3CCCCC3)c(F)cc2c1=O | – | 337
COc1ccc(NC(=O)C2c3ccccc3C(=O)N(CC(C)C)C2c2cccs2)cc1Cl (stereo unspecified) | – | 596
COc1cccc(C=Cc2nc(=O)c3ccccc3o2)c1OC | – | 438
Cc1cccc(-n2ncc3c(=O)[nH]c(-n4nc(C)cc4NC(=O)c4cc5ccccc5o4)nc32)c1 | – | 1090
OC(CNC1CCCCC1)Cn1c2ccccc2c2ccccc21 (stereo unspecified) | – | 897
CCOC(=O)c1cnc2ccc(CC)cc2c1O | – | 253
COc1ccc(Nc2nc(NCc3ccccc3)c3ccccc3n2)cc1 | 1480 | –
C=CC12CCN(CC1)C(C(O)c1ccnc3ccc(OC)cc13)C2 (stereo unspecified) | 823 | 276
